Read-outs that look alike come from different tables or passages of the source.
How the values were obtained:
[1] = test system: Key Grass and Sedge Weeds as well as Grass Crops; assay: Post-Emergent Test II (Table 6); assay type: in vivo; settings: post-emergence, 336 h, 14 days after application; for pest or weed control at 70 g/ha: 70 g ai/ha; for pest or weed control at 140 g/ha: 140 g ai/ha
Outline: (§1)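 Visual injury ratings (0 = no injury, 100 = complete kill) were taken 14 days after treatment relative to untreated plants. Seedlings at the first or second true leaf stage received an overhead spray at 187 L/ha, and solvent-blank sprayed plants served as controls.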

[2] = test system: Key Broadleaf Weed and Crop Species; assay: Post-Emergent Test II (Table 5); assay type: in vivo; settings: post-emergence, 336 h; for pest or weed control at 70 g/ha: application rate 70 (kg ai/ha; footnote: g ai/ha); for pest or weed control at 140 g/ha: application rate 140 (kg ai/ha; footnote: g ai/ha)
Outline: as §1

[3] = CYPSS, read-out: Visual Growth Reduction (%) 14 Days After Application CYPSS
[4] = DIGSA: crabgrass (Digitaria sanguinalis), read-out: Visual Growth Reduction (%) 14 Days After Application DIGSA
[5] = ECHSS, read-out: Visual Growth Reduction (%) 14 Days After Application ECHSS
[6] = ORYSS (crop), read-out: Visual Growth Reduction (%) 14 Days After Application ORYSS
[7] = SETFA: giant foxtail (Setaria faberi), read-out: Visual Growth Reduction (%) 14 Days After Application SETFA
[8] = SORVU: grain sorghum (Sorghum vulgare), read-out: Visual Growth Reduction (%) 14 Days After Application SORVU
[9] = TRZSS (crop), read-out: Visual Growth Reduction (%) 14 Days After Application TRZSS
[10] = ZEAMX: maize, corn (Zea mays), read-out: Visual Growth Reduction (%) 14 Days After Application ZEAMX
[11] = Abutilon theophrasti, ABUTH: velvetleaf (Abutilon theophrasti), read-out: Visual Growth Reduction (%) 14 Days After Application ABUTH
[12] = Amaranthus retroflexus, AMARE: redroot pigweed (Amaranthus retroflexus), read-out: Visual Growth Reduction (%) 14 Days After Application AMARE
[13] = Brassica napus, BRSSS: oilseed rape, canola (Brassica napus), read-out: Visual Growth Reduction (%) 14 Days After Application BRSSS
[14] = Chenopodium album, CHEAL: lambsquarters (Chenopodium album), read-out: Visual Growth Reduction (%) 14 Days After Application CHEAL
[15] = Euphorbia heterophylla, EPHHL: wild poinsettia (Euphorbia heterophylla), read-out: Visual Growth Reduction (%) 14 Days After Application EPHHL
[16] = Helianthus annuus, HELAN: sunflower (Helianthus annuus), read-out: Visual Growth Reduction (%) 14 Days After Application HELAN
[17] = Viola tricolor, VIOTR: wild pansy (Viola tricolor), read-out: Visual Growth Reduction (%) 14 Days After Application VIOTR

Row | SMILES | pest or weed control at 70 g/ha [1, 3] [%] | pest or weed control at 140 g/ha [1, 3] [%] | pest or weed control at 70 g/ha [1, 4] [%] | pest or weed control at 140 g/ha [1, 4] [%] | pest or weed control at 70 g/ha [1, 5] [%] | pest or weed control at 140 g/ha [1, 5] [%] | pest or weed control at 70 g/ha [1, 6] [%] | pest or weed control at 140 g/ha [1, 6] [%] | pest or weed control at 70 g/ha [1, 7] [%] | pest or weed control at 140 g/ha [1, 7] [%] | pest or weed control at 70 g/ha [1, 8] [%] | pest or weed control at 140 g/ha [1, 8] [%] | pest or weed control at 70 g/ha [1, 9] [%] | pest or weed control at 140 g/ha [1, 9] [%] | pest or weed control at 70 g/ha [1, 10] [%] | pest or weed control at 140 g/ha [1, 10] [%] | pest or weed control at 70 g/ha [2, 11] [%] | pest or weed control at 140 g/ha [2, 11] [%] | pest or weed control at 70 g/ha [2, 12] [%] | pest or weed control at 140 g/ha [2, 12] [%] | also measured
1 | COC(=O)c1nc(-c2ccc(OC)nc2)c(F)c(N)c1Cl [Compound 62] | 0 to 29 | 30 to 44 | 75 to 84 | 60 to 74 | 95 to 100 | 95 to 100 | 0 to 29 | 0 to 29 | 60 to 74 | 85 to 94 | 60 to 74 | 75 to 84 | 45 to 59 | 45 to 59 | 95 to 100 | 95 to 100 | 95 to 100 | 95 to 100 | 95 to 100 | 95 to 100 | pest or weed control at 70 g/ha [2, 13]: 60 to 74%; pest or weed control at 140 g/ha [2, 13]: 60 to 74%; pest or weed control at 70 g/ha [2, 14]: 95 to 100%; pest or weed control at 140 g/ha [2, 14]: 95 to 100%; pest or weed control at 70 g/ha [2, 15]: 95 to 100%; pest or weed control at 140 g/ha [2, 15]: 95 to 100%; pest or weed control at 70 g/ha [2, 16]: 95 to 100%; pest or weed control at 140 g/ha [2, 16]: 95 to 100%; pest or weed control at 70 g/ha [2, 17]: 0 to 29%; pest or weed control at 140 g/ha [2, 17]: 0 to 29%; melting point: 168 to 169 °C
2 | COc1c(N)nc(-c2ccc(Cl)c(F)c2C)nc1C(=O)O [Compound 64] | 0 to 29 | 0 to 29 | 0 to 29 | 0 to 29 | 0 to 29 | 0 to 29 | 0 to 29 | 0 to 29 | 0 to 29 | 0 to 29 | 0 to 29 | 0 to 29 | 0 to 29 | 0 to 29 | 0 to 29 | 0 to 29 | 0 to 29 | 0 to 29 | 60 to 74 | 75 to 84 | pest or weed control at 70 g/ha [2, 13]: 0 to 29%; pest or weed control at 140 g/ha [2, 13]: 0 to 29%; pest or weed control at 70 g/ha [2, 14]: 95 to 100%; pest or weed control at 140 g/ha [2, 14]: 95 to 100%; pest or weed control at 70 g/ha [2, 15]: 0 to 29%; pest or weed control at 140 g/ha [2, 15]: 0 to 29%; pest or weed control at 70 g/ha [2, 16]: 45 to 59%; pest or weed control at 140 g/ha [2, 16]: 85 to 94%; pest or weed control at 70 g/ha [2, 17]: 0 to 29%; pest or weed control at 140 g/ha [2, 17]: 0 to 29%; melting point: 140 to 143 °C
3 | COc1nc(C(F)(F)F)ccc1-c1cc(N)c(Cl)c(C(=O)O)n1 [Compound 65] | 0 to 29 | 0 to 29 | 0 to 29 | 0 to 29 | 0 to 29 | 0 to 29 | 0 to 29 | 0 to 29 | 0 to 29 | 0 to 29 | 0 to 29 | 0 to 29 | 0 to 29 | 0 to 29 | 0 to 29 | 0 to 29 | 0 to 29 | 0 to 29 | 85 to 94 | 85 to 94 | pest or weed control at 70 g/ha [2, 13]: 0 to 29%; pest or weed control at 140 g/ha [2, 13]: 0 to 29%; pest or weed control at 70 g/ha [2, 14]: 0 to 29%; pest or weed control at 140 g/ha [2, 14]: 0 to 29%; pest or weed control at 70 g/ha [2, 15]: 0 to 29%; pest or weed control at 140 g/ha [2, 15]: 0 to 29%; pest or weed control at 70 g/ha [2, 16]: 45 to 59%; pest or weed control at 140 g/ha [2, 16]: 45 to 59%; pest or weed control at 70 g/ha [2, 17]: 0 to 29%; pest or weed control at 140 g/ha [2, 17]: 0 to 29%; melting point: 169 to 171 °C
4 | Nc1c(F)c(-c2ccc(OC(F)F)nc2)nc(C(=O)O)c1Cl [Compound 66] | 45 to 59 | 45 to 59 | 60 to 74 | 60 to 74 | 75 to 84 | 75 to 84 | 0 to 29 | 0 to 29 | 60 to 74 | 60 to 74 | 30 to 44 | 75 to 84 | 45 to 59 | 60 to 74 | 60 to 74 | 60 to 74 | 75 to 84 | 85 to 94 | 0 to 29 | 0 to 29 | pest or weed control at 70 g/ha [2, 13]: 0 to 29%; pest or weed control at 140 g/ha [2, 13]: 0 to 29%; pest or weed control at 70 g/ha [2, 14]: 85 to 94%; pest or weed control at 140 g/ha [2, 14]: 95 to 100%; pest or weed control at 70 g/ha [2, 15]: 95 to 100%; pest or weed control at 140 g/ha [2, 15]: 95 to 100%; pest or weed control at 70 g/ha [2, 16]: 85 to 94%; pest or weed control at 140 g/ha [2, 16]: 85 to 94%; pest or weed control at 70 g/ha [2, 17]: 60 to 74%; pest or weed control at 140 g/ha [2, 17]: 60 to 74%; melting point: 134 to 136 °C

Reference: patent US10765114B2, “4-amino-6-(pyridyl and 2-substitutedphenyl)-picolinates and 6-amino-2-(pyridyl and 2-substitutedphenyl)-pyrimidine-4-carboxylates and their use as herbicides” (Dow AgroSciences LLC, priority 2013, dated 2020)
